Measurements as given in US10538555B2, “Macrocyclic inhibitors of the PD-1/PD-L1 and CD80(B7-1)/PD-L1 protein/protein interactions” (BRISTOL-MYERS SQUIBB COMPANY, priority 2014, dated 2020).
Where two headings read alike, the source gives them in different places. Where a SMILES comes first, the peptide text is derived from it. Bridges are numbered along the chain shown (N, C = ends). [ ]: non-standard residue; d: D form. ξ: configuration not given here. Hyp = O=C(O)[C@@H]1C[C@@H](O)CN1; NMehSer = CN[C@@H](CCO)C(=O)O; NMeNle = CCCC[C@H](NC)C(=O)O; dNle = CCCC[C@@H](N)C(=O)O; NMeA = CN[C@@H](C)C(=O)O; Orn = NCCC[C@H](N)C(=O)O; Dab = NCC[C@H](N)C(=O)O; Dap = NC[C@H](N)C(=O)O; ξC = NC(CS)C(=O)O

Target: T1, Human PD-L1/PD-1 (Homo sapiens, UniProt Q9NZQ7)
T1 construct: TVMV protease cleavage site (C); made in house; host or cells: HEK293T cells
T1 sequence (Q9NZQ7 with tags, fused parts or gaps): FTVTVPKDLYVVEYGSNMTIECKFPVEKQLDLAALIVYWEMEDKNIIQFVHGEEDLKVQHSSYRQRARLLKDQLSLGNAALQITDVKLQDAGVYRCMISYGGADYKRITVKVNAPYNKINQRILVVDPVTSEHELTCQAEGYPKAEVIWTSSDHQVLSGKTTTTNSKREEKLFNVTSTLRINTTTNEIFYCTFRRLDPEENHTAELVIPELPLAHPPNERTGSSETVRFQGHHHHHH
Experiment: HTRF Human PD-L1/PD-1 binding assay (PD-1-Ig/PD-L1-His)
Settings: PD-L1-His 10 nM, PD-1-Ig 20 nM
Summary of the method: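 Step 1: compound with PD-L1-His (10 nM final), 15 min. Step 2: PD-1-Ig (20 nM final), 15 min. Step 3: Eu-cryptate anti-Ig (1 nM) plus APC anti-His (20 nM), 30 min equilibration. Signal taken as 665 nm/620 nm ratio.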

[1] = class symbol, read-out: HTRF Human PD-L1/PD-1 Binding Assay IC50 Range
[2] = read-out: HTRF Human PD-L1/PD-1 Binding Assay IC50

Compound: CCCC[C@H]1NC(=O)[C@H](Cc2c[nH]c3ccccc23)NC(=O)[C@H](CO)NC(=O)[C@H](Cc2c[nH]c3ccccc23)NC(=O)[C@@H]2C[C@@H](O)CN2C(=O)[C@H](CCC(N)=O)NC(=O)[C@H](Cc2cnc[nH]2)NC(=O)[C@@H]2CCCN2C(=O)[C@H](CC(=O)O)NC(=O)[C@H](C)N(C)C(=O)[C@H](Cc2ccc(O)cc2)NC(=O)CSCC(C(=O)NCC(N)=O)NC(=O)[C@H](CCC(=O)O)NC(=O)[C@H](CCCC)N(C)C1=O (stereo partly drawn) [Example 10128] ({CH2CO}-Y[NMeA]DPHQ[Hyp]WSW[dNle][NMeNle]E[ξC]G-NH2; thioether N-14)
- IC50 [1]: 1000 to 10000 nM

Compound: CCCC[C@H]1NC(=O)[C@H](Cc2c[nH]c3ccccc23)NC(=O)[C@H](CO)NC(=O)[C@H](Cc2c[nH]c3ccccc23)NC(=O)[C@@H]2C[C@@H](O)CN2C(=O)[C@H](CCCN)NC(=O)[C@H](Cc2cnc[nH]2)NC(=O)[C@@H]2CCCN2C(=O)[C@H](CC(N)=O)NC(=O)[C@H](C)N(C)C(=O)[C@H](Cc2ccc(O)cc2)NC(=O)CSCC(C(=O)NCC(N)=O)NC(=O)[C@H](CCC(=O)O)NC(=O)[C@H](CCCC)N(C)C1=O (stereo partly drawn) [Example 10129] ({CH2CO}-Y[NMeA]NPH[Orn][Hyp]WSW[dNle][NMeNle]E[ξC]G-NH2; thioether N-14)
- IC50 [1]: 1000 to 10000 nM

Compound: CCCC[C@H]1NC(=O)[C@H](Cc2c[nH]c3ccccc23)NC(=O)[C@H](CO)NC(=O)[C@H](Cc2c[nH]c3ccccc23)NC(=O)[C@@H]2C[C@@H](O)CN2C(=O)[C@H](CCCN)NC(=O)[C@H](Cc2cnc[nH]2)NC(=O)[C@@H]2CCCN2C(=O)[C@H](CC(=O)O)NC(=O)[C@H](C)N(C)C(=O)[C@H](Cc2ccc(O)cc2)NC(=O)CSCC(C(=O)NCC(N)=O)NC(=O)[C@H](CCC(=O)O)NC(=O)[C@H](CCCC)N(C)C1=O (stereo partly drawn) [Example 10130] ({CH2CO}-Y[NMeA]DPH[Orn][Hyp]WSW[dNle][NMeNle]E[ξC]G-NH2; thioether N-14)
- IC50 [1]: 1000 to 10000 nM

Compound: CCCC[C@H]1NC(=O)[C@H](Cc2c[nH]c3ccccc23)NC(=O)[C@H](CO)NC(=O)[C@H](Cc2c[nH]c3ccccc23)NC(=O)[C@@H]2C[C@@H](O)CN2C(=O)[C@H](CC(C)C)NC(=O)[C@H](Cc2cnc[nH]2)NC(=O)[C@@H]2CCCN2C(=O)[C@H](CC(N)=O)NC(=O)[C@H](C)N(C)C(=O)[C@H](Cc2ccc(O)cc2)NC(=O)CSCC(C(=O)NCC(N)=O)NC(=O)[C@H](CCC(=O)O)NC(=O)[C@H](CCCC)N(C)C1=O (stereo partly drawn) [Example 10131]
- IC50 [2]: 2900 nM

Compound: CCCC[C@H]1NC(=O)[C@H](Cc2c[nH]c3ccccc23)NC(=O)[C@H](CO)NC(=O)[C@H](Cc2c[nH]c3ccccc23)NC(=O)[C@@H]2C[C@@H](O)CN2C(=O)[C@H](CC(C)C)NC(=O)[C@H](Cc2cnc[nH]2)NC(=O)[C@@H]2CCCN2C(=O)[C@H](CC(=O)O)NC(=O)[C@H](C)N(C)C(=O)[C@H](Cc2ccc(O)cc2)NC(=O)CSCC(C(=O)NCC(N)=O)NC(=O)[C@H](CCC(=O)O)NC(=O)[C@H](CCCC)N(C)C1=O (stereo partly drawn) [Example 10132] ({CH2CO}-Y[NMeA]DPHL[Hyp]WSW[dNle][NMeNle]E[ξC]G-NH2; thioether N-14)
- IC50 [1]: 100 to 990 nM

Compound: CCCC[C@H]1C(=O)N[C@@H](CCC(=O)O)C(=O)N[C@H](C(=O)NCC(N)=O)CSCC(=O)N[C@@H](Cc2ccc(O)cc2)C(=O)N(C)[C@@H](C)C(=O)N[C@@H](CC(=O)O)C(=O)N2CCC[C@H]2C(=O)N[C@@H](Cc2c[nH]cn2)C(=O)N[C@@H](CCC(N)=O)C(=O)N2C[C@H](O)C[C@H]2C(=O)N[C@@H](Cc2c[nH]c3ccccc23)C(=O)N[C@@H](CO)C(=O)N[C@@H](Cc2c[nH]c3ccccc23)C(=O)N(C)[C@@H](CCOC)C(=O)N1C [Example 10136] ({CH2CO}-Y[NMeA]DPHQ[Hyp]WSW[NMehSer](Me)[NMeNle]ECG-NH2; thioether N-14)
- IC50 [1]: 1 to 9.9 nM

Compound: CCCC[C@H]1C(=O)N[C@@H](CC(C)C)C(=O)N[C@H](C(=O)NCC(N)=O)CSCC(=O)N[C@@H](Cc2ccc(O)cc2)C(=O)N(C)[C@@H](C)C(=O)N[C@@H](CC(N)=O)C(=O)N2CCC[C@H]2C(=O)N[C@@H](Cc2c[nH]cn2)C(=O)N[C@@H](CCC(N)=O)C(=O)N2C[C@H](O)C[C@H]2C(=O)N[C@@H](Cc2c[nH]c3ccccc23)C(=O)NCC(=O)N[C@@H](Cc2c[nH]c3ccccc23)C(=O)N(C)[C@@H](CCOC)C(=O)N1C [Example 10137] ({CH2CO}-Y[NMeA]NPHQ[Hyp]WGW[NMehSer](Me)[NMeNle]LCG-NH2; thioether N-14)
- IC50 [1]: 10 to 99.9 nM

Compound: CCCC[C@H]1C(=O)N[C@@H](CO)C(=O)N[C@H](C(=O)NCC(N)=O)CSCC(=O)N[C@@H](Cc2ccc(O)cc2)C(=O)N(C)[C@@H](C)C(=O)N[C@@H](CC(N)=O)C(=O)N2CCC[C@H]2C(=O)N[C@@H](Cc2c[nH]cn2)C(=O)N[C@@H](CCC(N)=O)C(=O)N2C[C@H](O)C[C@H]2C(=O)N[C@@H](Cc2c[nH]c3ccccc23)C(=O)N[C@@H](CO)C(=O)N[C@@H](Cc2c[nH]c3ccccc23)C(=O)N(C)[C@@H](CCOC)C(=O)N1C [Example 10138] ({CH2CO}-Y[NMeA]NPHQ[Hyp]WSW[NMehSer](Me)[NMeNle]SCG-NH2; thioether N-14)
- IC50 [2]: 180 nM

Compound: CCCC[C@H]1C(=O)N[C@@H](CN)C(=O)N[C@H](C(=O)NCC(N)=O)CSCC(=O)N[C@@H](Cc2ccc(O)cc2)C(=O)N(C)[C@@H](C)C(=O)N[C@@H](CC(=O)O)C(=O)N2CCC[C@H]2C(=O)N[C@@H](Cc2c[nH]cn2)C(=O)N[C@@H](CCC(N)=O)C(=O)N2C[C@H](O)C[C@H]2C(=O)N[C@@H](Cc2c[nH]c3ccccc23)C(=O)N[C@@H](CO)C(=O)N[C@@H](Cc2c[nH]c3ccccc23)C(=O)N(C)[C@@H](CCOC)C(=O)N1C [Example 10139] ({CH2CO}-Y[NMeA]DPHQ[Hyp]WSW[NMehSer](Me)[NMeNle][Dap]CG-NH2; thioether N-14)
- IC50 [1]: 1 to 9.9 nM

Compound: CCCC[C@H]1C(=O)N[C@@H](CC(C)C)C(=O)N[C@H](C(=O)NCC(N)=O)CSCC(=O)N[C@@H](Cc2ccc(O)cc2)C(=O)N(C)[C@@H](C)C(=O)N[C@@H](CCN)C(=O)N2CCC[C@H]2C(=O)N[C@@H](Cc2c[nH]cn2)C(=O)N[C@@H](CCC(=O)O)C(=O)N2C[C@H](O)C[C@H]2C(=O)N[C@@H](Cc2c[nH]c3ccccc23)C(=O)N[C@@H](CO)C(=O)N[C@@H](Cc2c[nH]c3ccccc23)C(=O)N(C)[C@@H](CCOC)C(=O)N1C [Example 10140] ({CH2CO}-Y[NMeA][Dab]PHE[Hyp]WSW[NMehSer](Me)[NMeNle]LCG-NH2; thioether N-14)
- IC50 [1]: 10 to 99.9 nM

Compound: CCCC[C@H]1C(=O)N[C@@H](CCC(=O)O)C(=O)N[C@H](C(=O)NCC(N)=O)CSCC(=O)N[C@@H](Cc2ccc(O)cc2)C(=O)N(C)[C@@H](C)C(=O)N[C@@H](CC(N)=O)C(=O)N2CCC[C@H]2C(=O)N[C@@H](Cc2c[nH]cn2)C(=O)N[C@@H](CCC(N)=O)C(=O)N2C[C@H](O)C[C@H]2C(=O)N[C@@H](Cc2c[nH]c3ccccc23)C(=O)N[C@@H](CO)C(=O)N[C@@H](Cc2c[nH]c3ccccc23)C(=O)N(C)[C@@H](CCOC)C(=O)N1C [Example 10141] ({CH2CO}-Y[NMeA]NPHQ[Hyp]WSW[NMehSer](Me)[NMeNle]ECG-NH2; thioether N-14)
- IC50 [1]: 10 to 99.9 nM

Compound: CCCC[C@H]1C(=O)N(C)[C@@H](CCOC)C(=O)N[C@@H](CCC(=O)O)C(=O)N[C@H](C(=O)NCC(N)=O)CSCC(=O)N[C@@H](Cc2ccc(O)cc2)C(=O)N(C)[C@@H](C)C(=O)N[C@@H](CC(=O)O)C(=O)N2CCC[C@H]2C(=O)N[C@@H](Cc2c[nH]cn2)C(=O)N[C@@H](CCC(N)=O)C(=O)N2C[C@H](O)C[C@H]2C(=O)N[C@@H](Cc2c[nH]c3ccccc23)C(=O)N[C@@H](CO)C(=O)N[C@@H](Cc2c[nH]c3ccccc23)C(=O)N1C [Example 10142] ({CH2CO}-Y[NMeA]DPHQ[Hyp]WSW[NMeNle][NMehSer](Me)ECG-NH2; thioether N-14)
- IC50 [1]: 10 to 99.9 nM

Compound: CCCC[C@H]1C(=O)N(C)[C@@H](CCOC)C(=O)N[C@@H](CC(C)C)C(=O)N[C@H](C(=O)NCC(N)=O)CSCC(=O)N[C@@H](Cc2ccc(O)cc2)C(=O)N(C)[C@@H](C)C(=O)N[C@@H](CC(N)=O)C(=O)N2CCC[C@H]2C(=O)N[C@@H](Cc2c[nH]cn2)C(=O)N[C@@H](CCC(N)=O)C(=O)N2C[C@H](O)C[C@H]2C(=O)N[C@@H](Cc2c[nH]c3ccccc23)C(=O)NCC(=O)N[C@@H](Cc2c[nH]c3ccccc23)C(=O)N1C [Example 10143] ({CH2CO}-Y[NMeA]NPHQ[Hyp]WGW[NMeNle][NMehSer](Me)LCG-NH2; thioether N-14)
- IC50 [2]: 10.9 nM

Compound: CCCC[C@H]1C(=O)N(C)[C@@H](CCOC)C(=O)N[C@@H](CO)C(=O)N[C@H](C(=O)NCC(N)=O)CSCC(=O)N[C@@H](Cc2ccc(O)cc2)C(=O)N(C)[C@@H](C)C(=O)N[C@@H](CC(N)=O)C(=O)N2CCC[C@H]2C(=O)N[C@@H](Cc2c[nH]cn2)C(=O)N[C@@H](CCC(N)=O)C(=O)N2C[C@H](O)C[C@H]2C(=O)N[C@@H](Cc2c[nH]c3ccccc23)C(=O)N[C@@H](CO)C(=O)N[C@@H](Cc2c[nH]c3ccccc23)C(=O)N1C [Example 10144] ({CH2CO}-Y[NMeA]NPHQ[Hyp]WSW[NMeNle][NMehSer](Me)SCG-NH2; thioether N-14)
- IC50 [1]: 1 to 9.9 nM

Compound: CCCC[C@H]1C(=O)N(C)[C@@H](CCOC)C(=O)N[C@@H](CN)C(=O)N[C@H](C(=O)NCC(N)=O)CSCC(=O)N[C@@H](Cc2ccc(O)cc2)C(=O)N(C)[C@@H](C)C(=O)N[C@@H](CC(=O)O)C(=O)N2CCC[C@H]2C(=O)N[C@@H](Cc2c[nH]cn2)C(=O)N[C@@H](CCC(N)=O)C(=O)N2C[C@H](O)C[C@H]2C(=O)N[C@@H](Cc2c[nH]c3ccccc23)C(=O)N[C@@H](CO)C(=O)N[C@@H](Cc2c[nH]c3ccccc23)C(=O)N1C [Example 10145] ({CH2CO}-Y[NMeA]DPHQ[Hyp]WSW[NMeNle][NMehSer](Me)[Dap]CG-NH2; thioether N-14)
- IC50 [1]: 1 to 9.9 nM
